These results are taken from US10975116B2, “Methods of treating and preventing gastrointestinal motility disorders using aminosterols” (Enterin, Inc., priority 2013, dated 2021).

Entries after “also recorded” stand apart in the source; their conditions may differ.

What all share (type): in vivo, human
One data set relates to Parkinson's disease. The experiment in a line: Oral squalamine in Parkinson's disease with constipation, single subject. The procedure: A person, in otherwise good health, presented with Parkinson's disease of about 5 yrs duration. They were severely constipated and suffered from frequent episodes of cramping. These GI symptoms were similar to that described in Parkinson's and could not be alleviated medically or through dietary adjustment. Their medications included 5 L-DOPA/DDC caps/day and 1-2 Requip before bedtime. Their neurological status at this time was as follows, as determined about 1 hour after an L-DOPA dosing, a time point when they appear to be repleted with dopamine: • Slow walking with shuffling . . . need to squat intermittently • Articulation poor . . . difficult to understand their speech . . . halting • Use of utensils while eating involved slow, awkward movements • Face seemed a bit mask like; unconsciously made chewing movements • Cognitive function (memory, wit) was less than observed 3 months prior • Balance was unsteady • Mood was depressed • Swallowing noted to be difficult at times • Chewing food was slow • Handwriting was small
Began oral dosing with 200 mg capsule of squalamine on Day 1. Capsule was taken in the AM before breakfast, along with L-DOPA. […] 200 mg cap on day 2 provoked a watery diarrhea at 2 hrs after dosing, but discharge subsided by day 3 dosing. On day 13, subsequent dosing was maintained at 200 mg every other day, with some minor degree of nausea. No watery discharge. At about Day 30 the subject was switched to 100 mg every other day, and remained on this regimen for about 9.5 months.

The subject of data set [1] is Irritable Bowel Syndrome (IBS). The data set can be described thus: Oral squalamine in Irritable Bowel Syndrome, single subject. From the text:
A person, in otherwise good health, was suffering from the “mixed” form of IBS since early childhood. The condition was characterized by a failure to feel “cleared” after the passage of a stool; occasional crampiness; abdominal bloating and a sense of “fullness.” The condition caused them to be “conscious of their bowels” throughout the day, and frequently interrupted their sleep. Attempts to relieve themself on the toilet would generally be ineffective, leaving them with the feeling of “still having to go.”
On day 1 the individual was administered a single 200 mg capsule of squalamine, orally, on an empty stomach with water. Within 2 hrs they experienced nausea, at 3 hrs they vomited, followed soon after by the passage of about 200 ml of clear discharge rectally. By 3.5 hrs the nausea had passed. They ate normally at lunch and dinner. […] Slept better than they had in many years. The first stool was passed on Day 4, was soft and passed easily, and then successively on Days 5, 6, 7, and 8. Beginning at Day 6, they began to experience the prior GI symptoms. By Day 8, their usual GI symptoms had returned.
A second dosing trial was begun on Day 15, with a 50 mg capsule administered. […] Bowel movement was passed on Day 17. A 25 mg capsule was administered on Day 19. […] It was assumed that 50 mg dosed every other day was an optimum regimen. The individual remained on a dosing schedule of 50 mg orally every other day.

Another data set relates to lymphoma. The experiment in a line: Oral squalamine in lymphoma, single subject. The procedure: A person with a 2 year history of progressive dementia and weakness presented with a massive cervical, axillary, and inguinal lymphadenopathy, along with malaise, somnolence and pain. […] The skin of their feet was a nonblanching bright pink hue up to the ankle with a scattered brownish purpuric rash. The individual was provided end of life care.
At the end of December 2013, the individual was begun on a daily dose of one 50 mg capsule of squalamine. […] Rash cleared within 3 days. On day 4 after squalamine initiation, a short course of dexamethsone was begun to treat the hypercalcemia, and stimulate appetite. 20 mg (4 days), 16 mg (2 days), 8 mg, 4 mg (2 days), then 2 mg daily. […] Mid-January 2014 weakness on the right, involving arm and leg was noted; a diagnosis of a mild stroke was made. […] A flat left submandibular node was felt of normal size and consistency. […] Squalamine treatment continues.

The test system of data set [2] is Opioid induced constipation. The experiment in a line: Oral squalamine in opioid (codeine) induced constipation, single subject. The procedure: A normal subject began dosing with 1 tab codeine 30 mg/acetaminophen 300 mg at 8 A on Day 1, and repeated on Day 2 and Day 3. Normal bowel movement frequency was 1 or more stools/day, normally formed. Prior to codeine on Day 1, subject passed a normal stool in the AM. No bowel movements from the start of dosing through the 8 A Day 3 dose. No cramping; some gas. Some sense of fullness on the evening of Day 2.
At 9:15 A subject was administered 200 mg cap of squalamine. […] No nausea. […] A second smaller stool was passed at 12:30. […] The rapid effect on colonic motility seems unlikely to have been a direct effect of squalamine on the colon, but perhaps a downstream consequence of enteric nervous system stimulation. On Day 4, 30 mg codeine. No squalamine dosing. 7 P passed a loose stool of normal volume.

For another data set, the system named is gliobastoma. The data set can be described thus: Oral squalamine in brain tumor, single subject. As to the method:
A person presented with headache and memory loss. […] The tumor was partially resected surgically, followed by local radiation. The subject was placed on a clinical protocol evaluating everolimus and temozolimide.
In mid October 2013, the subject began squalamine capsules with a 100 mg single dose. […] Squalamine treatment continues.

The mark [3] stands for this setting: single 200 mg capsule Day 1, empty stomach.

Turning to squalamine, the “watery diarrhea, time after dosing” value in the data set on Parkinson's disease (200 mg cap on day 2) was 2 h. In the data set on Parkinson's disease (200 mg capsule Day 1, AM before breakfast, with L-DOPA), the “GI response to first dose” value is recorded as “No nausea experienced nor watery discharge; also recorded: Passed several moist stools”. In addition, the Observations result in the data set with Parkinson's disease (3 Weeks, 200 mg, from day 13 every other day) is on record as “Mood seems to have improved; also recorded: Some shaking even after L-DOPA; also recorded: Bowels improved considerably; also recorded: Walking more comfortably, but still uneven; also recorded: Subject feels breathing is easier; also recorded: Articulation much improved”. For the same substance, the resolution of constipation entry in the data set with Parkinson's disease (oral squalamine 200 mg regimen) is recorded as “Constipation resolved within several weeks”. Besides, the “response to 25 mg capsule” value in data set [1] (25 mg capsule on Day 19) is recorded as “By Day 21 the previous symptoms of IBS were returning”. Besides, the “response to 50 mg capsule” value in data set [1] (50 mg capsule on Day 15) is “Neither nausea nor a discharge was experienced; also recorded: Sense of bowel quiet was experienced”. In addition, the “IBS status on maintenance dosing” value in data set [1] (50 mg orally every other day, at 10 months) is “no longer experiences symptoms of IBS; also recorded: Bowel movements are of normal consistency; also recorded: Sleep is no longer interrupted by urgency to defecate”. Besides, in data set [1] (setting [3]), the “nausea had passed, time after dosing” value was no more than 3.5 h; the “volume of clear discharge passed rectally” value was “about 200 ml”; the “vomiting, time after dosing” value came to 3 h. In data set [1] (single 200 mg capsule Day 1, empty stomach, person with mixed IBS), the “nausea, time of onset after dosing” value is no more than 2 h. In data set [1] (single 200 mg capsule on Day 1), the first stool passed result was “Day 4”, the “period of bowel quiet without cramping or urgency” value is “Day 1 through Day 5” and the “return of usual GI symptoms” value was “Day 8”. Further, the “physical examination of nodes” value with lymphoma (50 mg daily from end of December 2013, end of February 2014) was “no palpable cervical nodes”. Moreover, the lymph node size result in the data set on lymphoma (50 mg daily, by 1 week, dexamethsone from day 4) is listed as “marked reduction in the size of the nodes”. The “clinical chemistry, polyclonal immunoglobulins” value in the data set on lymphoma (50 mg daily, repeat study) is “complete resolution of the polyclonal gammopathy”. In addition, the rash cleared in the data set with lymphoma (one 50 mg capsule daily) is given as no more than 3 days. In addition, the bowel function result with lymphoma (one 50 mg capsule daily, previously constipated) is recorded as “bowels began to move”. Besides, the bowel response entry in data set [2] (200 mg cap at 9:15 A on Day 3 of codeine 30 mg/acetaminophen 300 mg, no stool since start, stool at 11:15 A) is “passed a large soft, well formed stool with normal urgency; also recorded: A sense of bowel relief was appreciated”. For the same substance, the “nausea and rectal fluid” value in data set [2] (200 mg cap at 9:15 A on Day 3 of codeine dosing) is given as “No nausea; also recorded: No clear rectal fluid”. Further, the “decrease of tumor mass by MRI” value in the data set with gliobastoma (100 mg from mid October 2013, with everolimus and temozolimide protocol, early December 2013) is listed as “about 20%”. Further, the “residual tumor volume relative to volume after the surgery/radiation” value in the data set with gliobastoma (100 mg, beginning of February 2014) is recorded as 60%.
